Several values for one entry are separate records, joined by “and”; a condition that tells them apart may be missing. Identical values can stand only once. Like-named read-outs stand apart in the source and are kept apart here.
Legend:
SARS-CoV-2 [1] = test: Anti-SARS-CoV-2 activity in Calu3 ALI culture; type: cell-based; settings: Severe acute respiratory syndrome coronavirus 2, Calu-3; Calu3 air-liquid interface
SARS-CoV-2 [2] = test: Anti-SARS-CoV-2 activity in HAE-ALI culture; type: cell-based; settings: Severe acute respiratory syndrome coronavirus 2; HAE air-liquid interface
SARS-CoV-2 [3] = test: Anti-SARS-CoV-2 activity in HAE-HBO (apical-out lung organoids); type: cell-based; settings: Severe acute respiratory syndrome coronavirus 2
[4] = Cytotoxicity in PBM cells; type: cell-based, human; settings: human
Procedure: (§1) The toxicity of the compounds was assessed in Vero, human PBM, CEM (human lymphoblastoid), MT-2, and HepG2 cells, as described previously (see Schinazi R. F., Sommadossi J.-P., Saalmann V., Cannon D. L., Xie M.-Y., Hart G. C., Smith G. A. & Hahn E. F. Antimicrob. Agents Chemother. 1990, 34, 1061-67). Cycloheximide was included as positive cytotoxic control, and untreated cells exposed to solvent were included as negative controls. The cytotoxicity IC50 was obtained from the concentration-response curve using the median effective method described previously (see Chou T.-C. & Talalay P. Adv. Enzyme Regul. 1984, 22, 27-55; Belen'kii M. S. & Schinazi R. F. Antiviral Res. 1994, 25, 1-11).

[5] = Cytotoxicity in CEM cells; type: cell-based, human; settings: human, CEM lymphoblastoid cells
Procedure: as §1

Omicron [6] = test: Anti-Omicron activity in Calu-3; type: cell-based, SARS-CoV-2; settings: Severe acute respiratory syndrome coronavirus 2
[7] = Non-compartmental PK analysis of IV and oral Compound A in mice; type: in vivo; settings: for half-life: read-out: mean terminal t1/2 (converted)
Procedure: A study was performed to measure the concentration of Compound A ([…]) over time (hours) when administered orally at a concentration of 30 mg/kg (FIG. 8A) and intravenously at a concentration of 15 mg/kg (FIG. 8B).

[8] = Quantification of Compound A in mouse lung, brain and plasma; type: in vivo, CD-1 mice; settings: for concentration at 7 h / Brain concentration / Lung concentration: 7 h; for Plasma concentration, average / Plasma concentration: assuming density 1 g/mL
Procedure: CD-1 mice were treated with Compound A PO (30 mg/kg, 3 mice) or IV (15 mg/kg, 3 mice). Lung and brain samples were collected at 7 h.
Lung and brain samples were homogenized with 5× volume of 20% MeOH.
50 μL tissue homogenate was mixed with 250 μL MeOH (containing 40 nM indinavir as IS).
The supernatant was air-dried, then reconstituted in 150 μL of H2O.
Subjected to LC-MS analysis.
Calibration curve range: 30 nM to 30 μM.
Instrument: TSQ Quantiva, Column: Kinetex XB—C8 (50×2.1 mm, 2.6 μm)
LC buffers: A): 0.1% formic acid, and B): Acetonitrile
MRM methods: Compound A (269.2→112 positive), Indinavir (IS, 614.4→421.2 positive, IS)

[9] = Single dose range-finding study in Golden Syrian hamsters; type: in vivo; settings: for Notes (clinical observations): hamster, in vivo, ip
Procedure: 3 male Syrian hamsters were injected intraperitoneally with a Compound A starting at 5 mg/kg at time 0 with […] administered every 30 minutes upto a final 80 mg/kg. Clinical observations of toxicity were recorded.

[10] = Multi-dose range-finding study in Golden Syrian hamsters; settings: hamster, in vivo, po, 30 mg/kg
Procedure: Multi-dose range-finding study in Golden Syrian Hamsters: 3 male Syrian hamsters were given 30 mg/kg of compound A by oral gavage daily for 7 days. The body weight of each of the individual hamsters during the nucleoside analog treatment was measured (grams per day) over a 7 day period. […] The body temperature of the hamsters was also measured over the course of the treatment in two of the hamsters (FIG. 9, Rodent 1 and Rodent 2). The third hamster lost the chip, and, despite re-chipping, temperatures were still not recording.
Daily observations of the hamsters were taken, particularly with respect to their ability to eat and drink normally, and other behavior and activity ratings (B.A.R.), and the observations are summarized below in Table 10.

Omicron [11] = test: microbe, parasite or virus in culture
SARS-CoV-2 [12] = test: Anti-SARS-CoV-2 activity in Caco2 cells (virus yield inhibition)
SARS-CoV-2 [13] = settings: at 1 microM; FIGS. 1A-E (monocytes, epithelial cells, extracellular, total virus)
[14] = IV 15 mg/kg, individual mice, 15 mg/kg
[15] = PO 30 mg/kg, individual mice, 30 mg/kg

N#C[C@@]1(n2ccc(N)nc2=O)O[C@H](CO)[C@@H](O)[C@H]1O [Compound A, (2R,3R,4S,5R)-2-(4-amino-2-oxopyrimidin-1(2H)-yl)-3,4-dihydroxy-5-(hydroxymethyl)-tetrahydrofuran-2-carbonitrile]
EC50 (SARS-CoV-2 [1]): 1300 nM
EC90 (SARS-CoV-2 [1]): 7400 nM
EC50 (SARS-CoV-2 [2]): 400 nM
EC90 (SARS-CoV-2 [2]): 1600 nM
EC50 (SARS-CoV-2 [3]): 300 nM
EC90 (SARS-CoV-2 [3]): 500 nM
CC50 [4]: 92000 nM
CC50 [5]: 99000 nM
EC50 (Omicron [6]): 1800 to 2100 nM
EC90 (Omicron [6]): 4500 to 6200 nM
oral bioavailability [7]: excellent oral bioavailability
plasma concentration at start of decline ([7]; IV 15 mg/kg, FIG. 8B): around 10 μg/ml
Mean input time (MIT) into plasma of oral dose ([7]; MRTPO−MRTIV): 1.05 h
Ka ([7]; approximation assuming 1-compartment PK, ~1/MIT): ~0.95 h⁻¹
half-life ([7]; mouse, plasma, 15 mg/kg, IV dose): 2.23 h
half-life ([7]; mouse, plasma, 30 mg/kg, oral dose): 2.47 h
concentration at 7 h ([7]; mouse, plasma, IV 15 mg/kg, over the course of 7 hours, FIG. 8B, read-out: plasma concentration after 7 hours): ~100 ng/mL
bioavailability ([7]; mouse, plasma, oral 30 mg/kg vs IV 15 mg/kg, excluding PO_m3): 99.5%
AUC ([7]; mouse, plasma, oral 30 mg/kg, excluding PO_m3 (possible outlier), read-out: mean oral AUCPO): 28300 ng·h/mL
mean oral CL ([7]; oral 30 mg/kg, excluding PO_m3): 1.06 L/hr per kg
MRTPO ([7]; oral dose): 2.65 h
concentration at 7 h ([8]; CD-1, mouse, brain, iv, 15 mg/kg, IV 15 mg/kg, average of 3 mice, assuming tissue density 1 g/mL, read-out: Brain concentration, average): 270 nM
concentration at 7 h ([8]; CD-1, mouse, brain, iv, 15 mg/kg, IV 15 mg/kg, average of 3 mice, read-out: Brain concentration, average): 71.3 ng/g
concentration at 7 h ([8]; CD-1, mouse, brain, po, 30 mg/kg, PO 30 mg/kg, average of 3 mice, assuming tissue density 1 g/mL, read-out: Brain concentration, average): 200 nM
concentration at 7 h ([8]; CD-1, mouse, brain, po, 30 mg/kg, PO 30 mg/kg, average of 3 mice, read-out: Brain concentration, average): 53.1 ng/g
concentration at 7 h ([8]; CD-1, mouse, brain, po, 30 mg/kg, PO 30 mg/kg, individual mice, assuming tissue density 1 g/mL, read-out: Brain concentration): 280 nM
concentration at 7 h ([8]; CD-1, mouse, brain, po, 30 mg/kg, PO 30 mg/kg, individual mice, read-out: Brain concentration): 73.9 ng/g
concentration at 7 h ([8]; CD-1, mouse, lung, iv, 15 mg/kg, IV 15 mg/kg, average of 3 mice, assuming tissue density 1 g/mL, read-out: Lung concentration, average): 1200 nM
concentration at 7 h ([8]; CD-1, mouse, lung, iv, 15 mg/kg, IV 15 mg/kg, average of 3 mice, read-out: Lung concentration, average): 321 ng/g
concentration at 7 h ([8]; CD-1, mouse, lung, iv, 15 mg/kg, IV 15 mg/kg, individual mice, assuming tissue density 1 g/mL, read-out: Lung concentration): 830 nM
concentration at 7 h ([8]; CD-1, mouse, lung, iv, 15 mg/kg, IV 15 mg/kg, individual mice, read-out: Lung concentration): 223 ng/g
concentration at 7 h ([8]; CD-1, mouse, lung, po, 30 mg/kg, PO 30 mg/kg, average of 3 mice, assuming tissue density 1 g/mL, read-out: Lung concentration, average): 4010 nM
concentration at 7 h ([8]; CD-1, mouse, lung, po, 30 mg/kg, PO 30 mg/kg, average of 3 mice, read-out: Lung concentration, average): 1080 ng/g
Brain concentration [8, 14]: 39.3 ng/g and 56.9 ng/g and 117.8 ng/g
Lung concentration [8, 14]: 412.0 ng/g and 327.1 ng/g
concentration at 7 h ([8]; IV 15 mg/kg, individual mice, assuming tissue density 1 g/mL, 15 mg/kg, read-out: Brain concentration): 150 nM and 210 nM and 440 nM
concentration at 7 h ([8]; IV 15 mg/kg, individual mice, assuming tissue density 1 g/mL, 15 mg/kg, read-out: Lung concentration): 1540 nM and 1220 nM
Plasma concentration, average ([8]; IV 15 mg/kg, average of 3 mice): 520 nM
Plasma concentration [8, 14]: 370 nM and 610 nM and 590 nM
Brain concentration [8, 15]: 40.8 ng/g and 44.7 ng/g
Lung concentration [8, 15]: 881.8 ng/g and 730.8 ng/g and 1,615 ng/g
concentration at 7 h ([8]; PO 30 mg/kg, individual mice, assuming tissue density 1 g/mL, 30 mg/kg, read-out: Brain concentration): 150 nM and 170 nM
concentration at 7 h ([8]; PO 30 mg/kg, individual mice, assuming tissue density 1 g/mL, 30 mg/kg, read-out: Lung concentration): 3290 nM and 2720 nM and 6020 nM
Plasma concentration, average ([8]; PO 30 mg/kg, average of 3 mice): 3130 nM
Plasma concentration [8, 15]: 2090 nM and 2320 nM and 4990 nM
signs of toxicity ([9]; IP injection, total dose of 80 mg/kg, hamsters): no signs of toxicity
Notes (clinical observations) ([9]; 55 mg/kg): B.A.R.* No sign of discomfort
Notes (clinical observations) ([9]; 80 mg/kg): B.A.R.* No sign of discomfort
Daily Observations [10]: B.A.R. Eating
ability to eat and drink [10]: able to eat and drink normally
EC50 (Omicron [11]; Severe acute respiratory syndrome coronavirus 2, Caco-2, read-out: Anti-Omicron Activity (Caco-2) EC50): 1200 nM
EC90 (Omicron [11]; Severe acute respiratory syndrome coronavirus 2, Caco-2, read-out: Anti-Omicron Activity (Caco-2) EC90): 2200 nM
EC50 (SARS-CoV-2 [12]; Severe acute respiratory syndrome coronavirus 2, Caco-2, read-out: Anti-SARS-CoV-2 Activity (Caco2) EC50): 300 nM
EC90 (SARS-CoV-2 [12]; Severe acute respiratory syndrome coronavirus 2, Caco-2, read-out: Anti-SARS-CoV-2 Activity (Caco2) EC90): 1200 nM
reduction of viral loads (SARS-CoV-2 [13]): 2-3 log

— patent publication US20250114389A1, “NUCLEOSIDES AND NUCLEOTIDES ANALOGS AS ANTIVIRAL AGENTS” (Emory University, priority 2021, published 2025)
